Columns and labels:
[1] = tested on: pooled fecal microbiota from healthy lean subjects; assay: TIM-2 in vitro fermentation model, SCFA analysis; format: cell-based, human
From the text: The in vitro fermentation studies were done using the TIM-2 model. This is a validated, dynamic, computer-controlled model that simulates the human colon, mimicking body temperature, lumen pH, absorption of water and microbial metabolites through a semipermeable membrane inside the model, mixing and transporting the intestinal contents with peristaltic movements, using an anaerobic microbiota from human origin, it corresponds basically to the model as described in Minekus, M., et al. Appl. Microbiol. Biotechnol. 1999 53, 108 --- 114. doi: 10.1007/ s002530051622 and Kortman et al., Frontiers in Microbiology 2016, 6, 1481.
Characteristics of the movements of the contents in the TIM-2 system were simulated using an increase of the pH and peristaltic movements of the contents in the system using peristaltic pumps as described in Minekus, M (1998. Development and validation of a dynamic model of the gastrointestinal tract. PhD thesis, Delft University of Technology, The Netherlands).
SCFA analysis was performed at Brightlabs B.V., Venlo, The Netherlands), according to (Sáyago-Ayerdi SG, et al. Food Research International, E-pub date 13 Dec. 2017; Sayago Ayerdi et al Food Research International 118 (2019) 89-95).
Pooled fecal microbiota samples from 11 healthy lean subjects not suffering from any metabolic disease was used to inoculate the TIM-2 in vitro fermentation model.
The fecal microbiota was freshly sampled in and stored directly (within 2 h) on ice and under anaerobic conditions. Next, in an anaerobic cabinet, samples were diluted 1:1 with dialysate, and pooled at approximately equal weight, after which glycerol was added (to a final concentration of 12-13 w/w) and aliquots (30 ml/tube) were frozen in liquid nitrogen and stored at -80 ℃. […]
Samples (1 mL) were taken for SCFA analysis after 1, 2, 4, 6, 8 and 24 h after test product insertion; cumulative absolute amounts of SCFA were determined. […] The acids were detected using suppressed conductivity detection. […]

[2] = addition to infant formula; cited from earlier work
[3] = overweight men, cited from earlier work
[4] = TIM-2, microbiota of lean subjects (18.5 kg/m^2 ≤ BMI < 25 kg/m^2), 8-24 h, represents distal colon, single shot 7.5 g 2′-FL (± 7.5 g RS)
[5] = administered in the distal part of the colon

Compound	SCFA levels and in particular acetate levels in the distal colon (in words) ([1]; TIM-2, lean subjects' microbiota)	Acetate produced between 8 and 24 hours after insertion of the test product [1, 4] [mmol]	SCFA produced between 8 and 24 hours after insertion of the test product [1, 4] [mmol]	safety and tolerance [2]	circulating plasma concentrations of peptide YY (PYY) [3, 5]	fat oxidation [3, 5]	energy expenditure or substrate oxidation ([3]; administered in the proximal colon)
2′-Fucosyllactose [2′-FL w/o RS]	increased	12	21	safe and well-tolerated	–	–	–
CC(=O)[O-].[Na+] [sodium acetate]	–	–	–	–	significantly increased	significantly increased	no effect

From patent US20230189864A1, “NON-THERAPEUTIC METHODS FOR MAINTAINING A HEALTHY BODY WEIGHT OR LOSING BODY WEIGHT” (FrieslandCampina Nederland B.V., priority 2019, published 2023)
